The target of this assay is T1, NS5B from the BK strain (genotype 1b) (Hepatitis C virus genotype 1b, UniProt P26663).
T1 construct: NS5B from the BK strain (genotype 1b) is expressed in E. coli as a protein in which the 21 C-terminal amino acids are replaced; made in house; host or cells: E. coli
The assay can be described thus: Hepatitis C polymerase inhibition, NS5B BK strain, 33P-GTP filter assay. The class given is biochemical. Conditions: for inhibition at 20 µM: read-out: HCV pol % inh at 20 μM; for IC50: NS5B BK strain, read-out: HCV pol BK IC50. An outline of the steps: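 Radiolabelled RNA synthesis was measured by filter capture and scintillation counting after EDTA stop. His-tagged, C-terminally truncated (Δ21) genotype 1b BK NS5B from E. coli, pre-exposed to compound for 15 min, copied a self-primed RNA template (~3 nM) with α-[33P]-GTP for 2 h at room temperature.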

Molecules are shown by their SMILES. Where two headings read alike, the source gives them in different places. Some results are limits rather than exact numbers.

T1 sequence (P26663 2420-2989): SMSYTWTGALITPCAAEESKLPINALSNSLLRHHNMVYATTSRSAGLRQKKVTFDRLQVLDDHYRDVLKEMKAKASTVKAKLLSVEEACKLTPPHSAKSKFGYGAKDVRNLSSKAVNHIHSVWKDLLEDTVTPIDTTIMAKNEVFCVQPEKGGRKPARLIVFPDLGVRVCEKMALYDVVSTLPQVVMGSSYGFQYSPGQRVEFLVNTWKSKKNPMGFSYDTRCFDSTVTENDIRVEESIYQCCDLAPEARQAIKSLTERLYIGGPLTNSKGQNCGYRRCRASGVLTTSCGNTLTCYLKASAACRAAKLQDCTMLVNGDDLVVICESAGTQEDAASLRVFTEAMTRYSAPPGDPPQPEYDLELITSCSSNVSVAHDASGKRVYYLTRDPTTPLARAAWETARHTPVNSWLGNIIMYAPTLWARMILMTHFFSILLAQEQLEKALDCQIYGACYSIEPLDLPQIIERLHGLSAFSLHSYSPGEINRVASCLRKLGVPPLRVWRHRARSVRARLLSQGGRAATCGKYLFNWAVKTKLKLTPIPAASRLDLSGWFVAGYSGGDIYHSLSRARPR

Usually IC50 stands for the point on the concentration scale where inhibition reaches its midpoint. As to `CCC1(CC(=O)O)OCCc2c1[nH]c1c(Cl)cc(Cl)cc21` (centres unmarked) [Example 100, (6,8-dichloro-1-ethyl-1,3,4,9-tetrahydropyrano[3,4-b]indol-1-yl)acetic acid], for the setting “Table 1A, 20 μM compound”, the inhibition at 20 µM is 54%. Where the note is “Table 1A”, the IC50 was over 20 µM.

As for `CCCC1(CC(=O)O)OCCc2c1[nH]c1c(Cl)cc(Cl)cc21` (centres unmarked) [Example 101, (6,8-dichloro-1-propyl-1,3,4,9-tetrahydropyrano[3,4-b]indol-1-yl)acetic acid], the inhibition at 20 µM (Table 1A, 20 μM compound) worked out at 89%. The IC50 (Table 1A) came to 1.5 µM.

As for `CC(C)C1(CC(=O)O)OCCc2c1[nH]c1c(Cl)cc(Cl)cc21` (centres unmarked) [Example 102, (6,8-dichloro-1-isopropyl-1,3,4,9-tetrahydropyrano[3,4-b]indol-1-yl)acetic acid], the inhibition at 20 µM (Table 1A, 20 μM compound) turned out to be 51%. Also, the IC50 (Table 1A) was 21.7 µM.

Consider `CCCCC1(CC(=O)O)OCCc2c1[nH]c1c(Cl)cc(Cl)cc21` (centres unmarked) [Example 103, (1-butyl-6,8-dichloro-1,3,4,9-tetrahydropyrano[3,4-b]indol-1-yl)acetic acid], for which, under “Table 1A, 20 μM compound”, the inhibition at 20 µM stood at 60%. The IC50 (Table 1A) amounted to 14.4 µM.

Consider `C/C=C/CCC1(CC(=O)O)OCCc2c1[nH]c1c(Cl)cc(Cl)cc21` (centres unmarked) [Example 104, {6,8-dichloro-1-[(3E)-pent-3-enyl]-1,3,4,9-tetrahydropyrano[3,4-b]indol-1-yl}acetic acid], for which the inhibition at 20 µM (Table 1A, 20 μM compound) was under 5%. For the same compound, the IC50 (Table 1A) was over 20 µM.

As to `O=C(O)CC1(c2ccccc2)OCCc2c1[nH]c1c(Cl)cc(Cl)cc21` (centres unmarked) [Example 105, (6,8-dichloro-1-phenyl-1,3,4,9-tetrahydropyrano[3,4-b]indol-1-yl)acetic acid], the inhibition at 20 µM (Table 1A, 20 μM compound) is 57%. For the setting “Table 1A”, the IC50 is over 5 µM.

As for `O=C(O)CC1(c2ccc(C(=O)O)cc2)OCCc2c1[nH]c1c(Cl)cc(Cl)cc21` (centres unmarked) [Example 106, 4-[1-(carboxymethyl)-6,8-dichloro-1,3,4,9-tetrahydropyrano[3,4-b]indol-1-yl]benzoic acid], the inhibition at 20 µM (Table 1A, 20 μM compound) turned out to be 71%. The IC50 (Table 1A) is 2.3 µM.

With `CC1(CC(=O)O)OCCc2c1[nH]c1ccc(Cl)c(Cl)c21` (centres unmarked) [Example 107, (5,6-dichloro-1-methyl-1,3,4,9-tetrahydropyrano[3,4-b]indol-1-yl)acetic acid], the inhibition at 20 µM (Table 1A, 20 μM compound) amounted to 50%. For the same compound, the IC50 (Table 1A) came out at 19.1 µM.

With `O=C(O)CC1(c2ccc(C(=O)O)cc2)OCCc2c1[nH]c1ccc(Cl)c(Cl)c21` (centres unmarked) [Example 113, 4-[1-(carboxymethyl)-5,6-dichloro-1,3,4,9-tetrahydropyrano[3,4-b]indol-1-yl]benzoic acid], the inhibition at 20 µM turned out to be 35%. Also, the IC50 (Table 1A) amounted to 0.26 µM.

Turning to `CC1(CC(=O)O)OCCc2c1[nH]c1cc(Cl)cc(Cl)c21` (centres unmarked) [Example 114, (5,7-dichloro-1-methyl-1,3,4,9-tetrahydropyrano[3,4-b]indol-1-yl)acetic acid], the inhibition at 20 µM (Table 1A, 20 μM compound) was determined as 57%. In addition, the IC50 (Table 1A) was over 20 µM.

For `CC1(CC(=O)O)OCCc2c1[nH]c1c(C(F)(F)F)cccc21` (centres unmarked) [Example 115, [1-methyl-8-(trifluoromethyl)-1,3,4,9-tetrahydropyrano[3,4-b]indol-1-yl]acetic acid], the inhibition at 20 µM (Table 1A, 20 μM compound) came out at 40%. Further, the IC50 (Table 1A) was over 20 µM.

For `CCC1(CC(=O)O)OCCc2c1[nH]c1c(C(F)(F)F)cccc21` (centres unmarked) [Example 116, [1-ethyl-8-(trifluoromethyl)-1,3,4,9-tetrahydropyrano[3,4-b]indol-1-yl]acetic acid], the inhibition at 20 µM (Table 1A, 20 μM compound) was 34%. Also, the IC50 (Table 1A) was over 20 µM.

On to `CCCC1(CC(=O)O)OCCc2c1[nH]c1c(C(F)(F)F)cccc21` (centres unmarked) [Example 117, [1-propyl-8-(trifluoromethyl)-1,3,4,9-tetrahydropyrano[3,4-b]indol-1-yl]acetic acid], for which the inhibition at 20 µM (Table 1A, 20 μM compound) is 39%. For the same compound, under “Table 1A”, the IC50 came to 9.6 µM.

(Values after patent US7217730B2, “Method for the use of pyranoindole derivatives to treat infection with Hepatitis C virus” (Wyeth, priority 2002, dated 2007).)
